What was measured:
[1] = test system: Mycobacterium smegmatis (ATCC 14468); assay: Broth assay of killing action of antibiotic alone and with lysergol (viable cell count); conditions: M. smegmatis; antibiotic 0.2 μg/ml
[2] = test system: Bacillus subtilis (ATCC 6051); assay: as above; conditions: B. subtilis; antibiotic 0.4 μg/ml
[3] = test system: Escherichia coli (ATCC 10536); assay: as above; conditions: E. coli
bacteria = assay: Growth of bacteria in presence of lysergol alone; type: cell-based; conditions: bacteria grown in presence of lysergol alone
Description: 1. […] Process for the Isolation of Lysergol

Row | SMILES | Survival fraction of viable cells upon treatment with antibiotic alone [1] | Survival fraction of viable cells upon treatment with antibiotic alone [2] | Survival fraction of viable cells upon treatment with antibiotic alone ([3]; antibiotic 10 μg/ml) | Survival fraction of viable cells upon treatment with antibiotic alone ([3]; antibiotic 20 μg/ml) | Killing of bacteria by the compound as such (bacteria)
1 | CO[C@H]1/C=C/O[C@@]2(C)Oc3c(C)c(O)c4c(O)c(c(/C=N/N5CCN(C)CC5)c(O)c4c3C2=O)NC(=O)/C(C)=C\C=C\[C@H](C)[C@H](O)[C@@H](C)[C@@H](O)[C@@H](C)[C@H](OC(C)=O)[C@@H]1C [Rifampicin] | 0.45-0.54 | 0.085-0.096 | 0.35-0.45 | 0.25-0.30 | 
2 | CN1C[C@H](CO)C=C2c3cccc4[nH]cc(c34)C[C@H]21 [lysergol, 9,10-Didehydro-6-methylergoline-8-[…]-methanol] |  |  |  |  | no significant killing
